The text below walks through data of patent publication US20110044938A1 (NYCOMED GMBH, priority 2006, published 2011).

Molecules are shown by their SMILES. Where only a bound is given, the exact number is not on record here.

The subject of assay [1] is subclones of RKO colon adenocarcinoma cells (RKOp27 or RKOp21) arrested by Ponasterone A. Put plainly: Alamar Blue cell viability assay, cell cycle specific mode of action: cells arrested by ectopic p27Kip1 induced by Ponasterone A versus proliferating cells. Type of assay: cell-based. The settings on record: Homo sapiens, RKO p27 induced (arrested) cells, 10 μM Ponasterone A, 72 hours, value = class bound given in Table A, read-out: −logIC50 RKO p27 induced (arrested) (converted). Put shortly:
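Viability of proliferating versus Ponasterone A (10 μM)-arrested RKOp27/RKOp21 cells after 72 h compound exposure at 37° C, in quadruplicate. Read-out is Alamar Blue fluorescence (544/590 nm) normalised to untreated cells = 100%; values as −log IC50.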
In general terms: The colour change of resazurin is a common sign of viable cells or microbes.

The test system of assay [2] is RKO (RKOp27) human colon adenocarcinoma cells. Nature of the assay: Alamar Blue cell viability assay, anti-proliferative/cytotoxic activity on proliferating RKO subclones. Type of assay: cell-based. The settings on record: RKOp27, 72 h, RKO p27 uninduced (proliferating) cells, value = class bound given in Table A, read-out: −logIC50 RKO p27 uninduced (proliferating) (converted). Put shortly:
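Alamar Blue fluorescence (ex 544, em 590 nm) after 72 h compound exposure at 37 °C, 5% CO2, normalised to untreated controls set at 100%. Cells were seeded at 5000 per well and dosed 24 h later with serial semi-logarithmic dilutions in 10% FCS DMEM, four replicates each. −log IC50 [mol/l] was derived from concentration-effect curves.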

As for `CCOc1ccccc1CCC(=O)Nc1sc2c(c1C#N)CCC(COC(=O)NCCn1ccnc1)C2` (stereo not drawn) [Example 164, (2-Imidazol-1-yl-ethyl)-carbamic acid 3-cyano-2-[3-(2-ethoxy-phenyl)-propanoylamino]-4,5,6,7-tetrahydro-benzo[b]thiophen-6-ylmethyl ester], the results for the IC50 in assay [1] and in assay [2] were at least 10000 nM and at most 501 nM, respectively.

As to `CCOc1ccccc1CCC(=O)Nc1sc2c(c1C#N)CCC(OC(=O)NCc1cccnc1)C2` (stereo not drawn) [Example 165, Pyridin-3-ylmethyl-carbamic acid 3-cyano-2-[3-(2-ethoxy-phenyl)-propanoylamino]-4,5,6,7-tetrahydro-benzo[b]thiophen-6-yl ester], the IC50 in assay [1] is at least 100000 nM; in assay [2] it was at most 501 nM.

As to `CCOc1ccccc1CCC(=O)Nc1sc2c(c1C#N)CCC(OC(=O)NCCc1cccnc1)C2` (stereo not drawn) [Example 166, (2-Pyridin-3-yl-ethyl)-carbamic acid 3-cyano-2-[3-(2-ethoxy-phenyl)-propanoylamino]-4,5,6,7-tetrahydro-benzo[b]thiophen-6-yl ester], the figures for the IC50 in assay [1] and in assay [2] were at least 100000 nM and at most 501 nM, respectively.

For the molecule `CCOc1ccccc1CCC(=O)Nc1sc2c(c1C#N)CCC(OC(=O)NCc1cncn1C)C2` (stereo not drawn) [Example 167, (3-Methyl-3H-imidazol-4-ylmethyl)-carbamic acid 3-cyano-2-[3-(2-ethoxy-phenyl)-propanoylamino]-4,5,6,7-tetrahydro-benzo[b]thiophen-6-yl ester], the values for the IC50 in assay [1] and in assay [2] were at least 10000 nM and at most 501 nM, respectively.

Turning to `CCOc1ccccc1CCC(=O)Nc1sc2c(c1C#N)CCC(OC(=O)NCc1cn(C)cn1)C2` (stereo not drawn) [Example 168, (1-Methyl-1H-imidazol-4-ylmethyl)-carbamic acid 3-cyano-2-[3-(2-ethoxy-phenyl)-propanoylamino]-4,5,6,7-tetrahydro-benzo[b]thiophen-6-yl ester], the figures for the IC50 in assay [1] and in assay [2] were at least 10000 nM and at most 501 nM, respectively.

For the molecule `CCOc1ccccc1CCC(=O)Nc1sc2c(c1C#N)CCC(OC(=O)NCc1ccnn1C)C2` (stereo not drawn) [Example 169, (2-Methyl-2H-pyrazol-3-ylmethyl)-carbamic acid 3-cyano-2-[3-(2-ethoxy-phenyl)-propanoylamino]-4,5,6,7-tetrahydro-benzo[b]thiophen-6-yl ester], the IC50 is at least 50100 nM in assay [1] and at most 501 nM in assay [2].

For the molecule `CCOc1ccccc1CCC(=O)Nc1sc2c(c1C#N)CCC(OC(=O)NCc1cnn(C)c1)C2` (stereo not drawn) [Example 170, (1-Methyl-1H-pyrazol-4-ylmethyl)-carbamic acid 3-cyano-2-[3-(2-ethoxy-phenyl)-propanoylamino]-4,5,6,7-tetrahydro-benzo[b]thiophen-6-yl ester], the IC50 was at least 100000 nM in assay [1] and at most 501 nM in assay [2].

As to `CCOc1ccccc1CCC(=O)Nc1sc2c(c1C#N)CCC(OC(=O)NCc1ccncc1)C2` (stereo not drawn) [Example 171, Pyridin-4-ylmethyl-carbamic acid 3-cyano-2-[3-(2-ethoxy-phenyl)-propanoylamino]-4,5,6,7-tetrahydro-benzo[b]thiophen-6-yl ester], the IC50 in assay [1] was at least 50100 nM; in assay [2], at most 501 nM.

As for `CCOc1ccccc1CCC(=O)Nc1sc2c(c1C#N)CCC(OC(=O)NCc1cc(C)on1)C2` (stereo not drawn) [Example 172, (5-Methyl-isoxazol-3-ylmethyl)-carbamic acid 3-cyano-2-[3-(2-ethoxy-phenyl)-propanoylamino]-4,5,6,7-tetrahydro-benzo[b]thiophen-6-yl ester], the IC50 in assay [1] is at least 100000 nM; in assay [2], at most 501 nM.

Take `CCOc1ccccc1CCC(=O)Nc1sc2c(c1C#N)CCC(OC(=O)NCc1nccn1C)C2` (stereo not drawn) [Example 173, (1-Methyl-1H-imidazol-2-ylmethyl)-carbamic acid 3-cyano-2-[3-(2-ethoxy-phenyl)-propanoylamino]-4,5,6,7-tetrahydro-benzo[b]thiophen-6-yl ester]: the IC50 in assay [1] was at least 10000 nM; in assay [2] it was at most 501 nM.

Turning to `CCOc1ccccc1CCC(=O)Nc1sc2c(c1C#N)CCC(OC(=O)NCc1ccccn1)C2` (stereo not drawn) [Example 174, Pyridin-2-ylmethyl-carbamic acid 3-cyano-2-[3-(2-ethoxy-phenyl)-propanoylamino]-4,5,6,7-tetrahydro-benzo[b]thiophen-6-yl ester], the figures for the IC50 in assay [1] and in assay [2] were at least 100000 nM and at most 501 nM, respectively.

Turning to `CCOc1ccccc1CCC(=O)Nc1sc2c(c1C#N)CCC(COC(=O)NCc1cccnc1)C2` (stereo not drawn) [Example 175, Pyridin-3-ylmethyl-carbamic acid 3-cyano-2-[3-(2-ethoxy-phenyl)-propanoylamino]-4,5,6,7-tetrahydro-benzo[b]thiophen-6-ylmethyl ester], the IC50 is at least 100000 nM in assay [1] and at most 501 nM in assay [2].

In the case of `CCOc1ccccc1CCC(=O)Nc1sc2c(c1C#N)CCC(COC(=O)NCCc1cccnc1)C2` (stereo not drawn) [Example 176, (2-Pyridin-3-yl-ethyl)-carbamic acid 3-cyano-2-[3-(2-ethoxy-phenyl)-propanoylamino]-4,5,6,7-tetrahydro-benzo[b]thiophen-6-ylmethyl ester], the results for the IC50 in assay [1] and in assay [2] were at least 100000 nM and at most 501 nM, respectively.

As to `CCOc1ccccc1CCC(=O)Nc1sc2c(c1C#N)CCC(COC(=O)NCc1cncn1C)C2` (stereo not drawn) [Example 177, (3-Methyl-3H-imidazol-4-ylmethyl)-carbamic acid 3-cyano-2-[3-(2-ethoxy-phenyl)-propanoylamino]-4,5,6,7-tetrahydro-benzo[b]thiophen-6-ylmethyl ester], the IC50 in assay [1] was at least 50100 nM; in assay [2], at most 501 nM.

Turning to `CCOc1ccccc1CCC(=O)Nc1sc2c(c1C#N)CCC(COC(=O)NCc1cn(C)cn1)C2` (stereo not drawn) [Example 178, (1-Methyl-1H-imidazol-4-ylmethyl)-carbamic acid 3-cyano-2-[3-(2-ethoxy-phenyl)-propanoylamino]-4,5,6,7-tetrahydro-benzo[b]thiophen-6-ylmethyl ester], the IC50 in assay [1] is at least 50100 nM; in assay [2], at most 501 nM.

In the case of `CCOc1ccccc1CCC(=O)Nc1sc2c(c1C#N)CCC(COC(=O)NCc1ncc[nH]1)C2` (stereo not drawn) [Example 179, (1H-Imidazol-2-ylmethyl)-carbamic acid 3-cyano-2-[3-(2-ethoxy-phenyl)-propanoylamino]-4,5,6,7-tetrahydro-benzo[b]thiophen-6-ylmethyl ester], the IC50 is at least 10000 nM in assay [1] and at most 501 nM in assay [2].

As to `CCOc1ccccc1CCC(=O)Nc1sc2c(c1C#N)CCC(COC(=O)NCc1ccnn1C)C2` (stereo not drawn) [Example 180, (2-Methyl-2H-pyrazol-3-ylmethyl)-carbamic acid 3-cyano-2-[3-(2-ethoxy-phenyl)-propanoylamino]-4,5,6,7-tetrahydro-benzo[b]thiophen-6-ylmethyl ester], the IC50 is at least 100000 nM in assay [1] and at most 501 nM in assay [2].

Regarding `CCOc1ccccc1CCC(=O)Nc1sc2c(c1C#N)CCC(COC(=O)NCc1ccncc1)C2` (stereo not drawn) [Example 181, Pyridin-4-ylmethyl-carbamic acid 3-cyano-2-[3-(2-ethoxy-phenyl)-propanoylamino]-4,5,6,7-tetrahydro-benzo[b]thiophen-6-ylmethyl ester], the IC50 in assay [1] was at least 100000 nM; in assay [2] it was at most 501 nM.

For `CCOc1ccccc1CCC(=O)Nc1sc2c(c1C#N)CCC(COC(=O)NCc1cc(C)on1)C2` (stereo not drawn) [Example 182, (5-Methyl-isoxazol-3-ylmethyl)-carbamic acid 3-cyano-2-[3-(2-ethoxy-phenyl)-propanoylamino]-4,5,6,7-tetrahydro-benzo[b]thiophen-6-ylmethyl ester], the IC50 is at least 100000 nM in assay [1] and at most 501 nM in assay [2].

For `CCOc1ccccc1CCC(=O)Nc1sc2c(c1C#N)CCC(COC(=O)NCc1nccn1C)C2` (stereo not drawn) [Example 183, (1-Methyl-1H-imidazol-2-ylmethyl)-carbamic acid 3-cyano-2-[3-(2-ethoxy-phenyl)-propanoylamino]-4,5,6,7-tetrahydro-benzo[b]thiophen-6-ylmethyl ester], the results for the IC50 in assay [1] and in assay [2] were at least 50100 nM and at most 501 nM, respectively.

As to `CCOc1ccccc1CCC(=O)Nc1sc2c(c1C#N)CCC(COC(=O)NCc1ccccn1)C2` (stereo not drawn) [Example 184, Pyridin-2-ylmethyl-carbamic acid 3-cyano-2-[3-(2-ethoxy-phenyl)-propanoylamino]-4,5,6,7-tetrahydro-benzo[b]thiophen-6-ylmethyl ester], the IC50 was at least 100000 nM in assay [1] and at most 501 nM in assay [2].

In the case of `CCOc1ccccc1CCC(=O)Nc1sc2c(c1C#N)CCC(OC(=O)NCc1ncc[nH]1)C2` (stereo not drawn) [Example 185, (1H-Imidazol-2-ylmethyl)-carbamic acid 3-cyano-2-[3-(2-ethoxy-phenyl)-propanoylamino]-4,5,6,7-tetrahydro-benzo[b]thiophen-6-yl ester], the figures for the IC50 in assay [1] and in assay [2] were at least 10000 nM and at most 501 nM, respectively.

Turning to `COC(=O)OC1CCc2c(sc(NC(=O)CCc3cccnc3)c2C#N)C1` (stereo not drawn) [Example 186, Carbonic acid 3-cyano-2-(3-pyridin-3-yl-propanoylamino)-4,5,6,7-tetrahydro-benzo[b]thiophen-6-yl ester methyl ester], the results for the IC50 in assay [1] and in assay [2] were at least 100000 nM and 501 to 2000 nM, respectively.

In the case of `CCOc1ccccc1CCC(=O)Nc1sc2c(c1C#N)CCC(COC(=O)NCC1CCOCC1)C2` (stereo not drawn) [Example 194, (Tetrahydro-pyran-4-ylmethyl)-carbamic acid 3-cyano-2-[3-(2-ethoxy-phenyl)-propanoylamino]-4,5,6,7-tetrahydro-benzo[b]thiophen-6-ylmethyl ester], the IC50 is at least 10000 nM in assay [1] and at most 501 nM in assay [2].
